Test results reported in ChEMBL document CHEMBL1124679, “A novel lead for specific anti-HIV-1 agents: 1-[(2-hydroxyethoxy)methyl]-6-(phenylthio)thymine” (J Med Chem, 1989).

Columns and labels:
[1] = target: T1, Human immunodeficiency virus type 1 reverse transcriptase (Human immunodeficiency virus 1, UniProt Q72547); experiment: Inhibitory effect on HIV-1 reverse transcriptase activity using poly(rA)-oligo(dT) template primer
[2] = Selectivity index is the ratio of CC50/EC50; assay type: functional
MT4 [3] = experiment: Concentration required to achieve 50% protection of MT-4 cells against cytopathic effect of HIV-1; assay type: functional, cell-based; conditions: Homo sapiens
MT4 [4] = experiment: Cytotoxic concentration of compound required to reduce the viability of mock-infected MT-4 cells by 50%; assay type: functional; conditions: Homo sapiens
[5] = target: T1, Human immunodeficiency virus type 1 reverse transcriptase; experiment: Inhibitory effect on HIV-1 reverse transcriptase activity using poly(rC)-oligo(dG) template primer

| SMILES | IC50 [1] | SI [2] | EC50 (MT4 [3]) | CC50 (MT4 [4]) | IC50 [5] |
| --- | --- | --- | --- | --- | --- |
| Cc1cn(C2CC(N=[N+]=[N-])C(COP(=O)(O)P(=O)(O)P(=O)(O)O)O2)c(=O)[nH]c1=O (stereo not drawn) | 0.034 µM | – | – | – | – |
| O=c1[nH]c(=O)n(COCCO)c(I)c1F | – | < 2.1 | > 15 µM | 32 µM | – |
| O=c1[nH]c(=O)n(COCCO)c(Sc2ccccc2)c1F | – | < 2.9 | > 100 µM | 288 µM | – |
| O=c1cc(Sc2ccccc2)n(COCCO)c(=O)[nH]1 | – | < 3.7 | > 500 µM | 1850 µM | – |
| Cc1cn([C@H]2C[C@H](N=[N+]=[N-])[C@@H](CO)O2)c(=O)[nH]c1=O [ZIDOVUDINE] | – | 1250 | 0.016 µM | 20 µM | – |
| Cc1c(I)n(COCCO)c(=O)[nH]c1=O | – | < 5 | > 80 µM | 400 µM | – |
| O=c1[nH]c(=O)n(COCCO)c(Sc2ccccc2)c1Cl | – | < 3.4 | > 30 µM | 100 µM | – |
| O=c1[nH]c(=O)n(COCCO)c(I)c1Br | – | < 2.3 | > 5 µM | 11.5 µM | – |
| O=c1[nH]c(=O)n(COCCO)c(I)c1Cl | – | < 2.2 | > 6 µM | 13 µM | – |
| O=c1[nH]c(=O)n(COCCO)c(Sc2ccccc2)c1Br | – | < 2.2 | > 20 µM | 44 µM | – |
| Cc1c(Sc2ccccc2)n(COCCOP(=O)(O)P(=O)(O)P(=O)(O)O)c(=O)[nH]c1=O | 280 µM | – | – | – | 500 µM |
| Cc1c(Sc2ccccc2)n(COCCO)c(=O)[nH]c1=O [HEPT] | > 500 µM | – | 7 µM | 740 µM | 150 µM |
| O=c1cc(I)n(COCCO)c(=O)[nH]1 | – | < 2.5 | > 30 µM | 75 µM | – |
| Nc1ccn([C@H]2CC[C@@H](CO)O2)c(=O)n1 [ZALCITABINE] | – | 133 | 0.3 µM | 40 µM | – |
| Nc1ncnc2c1ncn2[C@H]1CC[C@@H](CO)O1 | – | 141 | 6.3 µM | 890 µM | – |
